Experimental data reported in US20030143729A1 (Synaptic Pharmaceutical Corporation, priority 1992, published 2003).
Like-named read-outs stand apart in the source and are kept apart here.

Experiments:
hBGT-1 [1] = target: T1, hBGT-1 (Homo sapiens, UniProt P48065); conditions: read-out: IC50 for inhibition of [3H]GABA uptake, human BGT-1; stable cell line; 50 nM [3H]GABA
T1 sequence (P48065 1-614): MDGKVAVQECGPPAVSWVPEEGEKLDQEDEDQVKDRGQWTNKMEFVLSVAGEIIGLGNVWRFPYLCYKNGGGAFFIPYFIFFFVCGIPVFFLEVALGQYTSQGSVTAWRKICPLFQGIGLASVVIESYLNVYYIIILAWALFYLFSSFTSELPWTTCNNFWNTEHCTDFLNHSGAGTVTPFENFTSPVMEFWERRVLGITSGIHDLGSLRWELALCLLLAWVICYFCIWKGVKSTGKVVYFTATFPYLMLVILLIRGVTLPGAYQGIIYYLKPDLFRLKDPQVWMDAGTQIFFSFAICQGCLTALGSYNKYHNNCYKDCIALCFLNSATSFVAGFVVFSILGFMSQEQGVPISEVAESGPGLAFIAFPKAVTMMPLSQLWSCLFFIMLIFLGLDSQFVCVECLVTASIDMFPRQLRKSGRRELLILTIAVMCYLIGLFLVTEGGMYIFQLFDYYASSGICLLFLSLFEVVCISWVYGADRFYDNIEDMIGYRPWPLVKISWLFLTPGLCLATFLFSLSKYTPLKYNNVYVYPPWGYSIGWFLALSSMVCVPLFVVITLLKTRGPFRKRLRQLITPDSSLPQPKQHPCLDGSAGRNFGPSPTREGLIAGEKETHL
Procedure: (§1) Cells were grown under standard conditions (37° C., 5% CO2) in Dulbecco's modified Eagles's medium (GIBCO, Grand Island, N.Y.).
(§2) Cells grown in 24-well plates were washed 3× with HEPES-buffered saline (HBS, in mM: NaCl, 150; HEPES, 20; CaCl2, 1; glucose, 10; KCl, 5; MgCl2, 1; pH 7.4) and allowed to equilibrate on a 37° C. slide warmer. After 10 minutes the medium was removed and unlabeled drugs in HBS were added (450 μl/well). […] Plates were incubated at 37° C. for 10 minutes, then washed rapidly 3× with ice-cold HBS, using a 24-position plate washer (Brandel, Gaithersburg, Mass.; model PW-12). Cells were solubilized with 0.05% sodium deoxycholate/0.1N NaOH (0.25 ml/well), an aliquot neutralized with 1N HCl, and radioactivity was determined by scintillation counting. Protein was quantified in an aliquot of the solubilized cells using a BIO-RAD protein assay kit, according to the manufacturer's directions.
(§3) Lipophilic inhibitors were dissolved in DMSO.
(§4) Data Analysis: Competition curves were conducted in duplicate, using 10 concentrations of unlabeled drug.

human GAT-1 [2] = target: T2, human GAT-1 (Homo sapiens, UniProt P30531); conditions: read-out: IC50 for inhibition of [3H]GABA uptake, human GAT-1
T2 sequence (P30531 whole entry): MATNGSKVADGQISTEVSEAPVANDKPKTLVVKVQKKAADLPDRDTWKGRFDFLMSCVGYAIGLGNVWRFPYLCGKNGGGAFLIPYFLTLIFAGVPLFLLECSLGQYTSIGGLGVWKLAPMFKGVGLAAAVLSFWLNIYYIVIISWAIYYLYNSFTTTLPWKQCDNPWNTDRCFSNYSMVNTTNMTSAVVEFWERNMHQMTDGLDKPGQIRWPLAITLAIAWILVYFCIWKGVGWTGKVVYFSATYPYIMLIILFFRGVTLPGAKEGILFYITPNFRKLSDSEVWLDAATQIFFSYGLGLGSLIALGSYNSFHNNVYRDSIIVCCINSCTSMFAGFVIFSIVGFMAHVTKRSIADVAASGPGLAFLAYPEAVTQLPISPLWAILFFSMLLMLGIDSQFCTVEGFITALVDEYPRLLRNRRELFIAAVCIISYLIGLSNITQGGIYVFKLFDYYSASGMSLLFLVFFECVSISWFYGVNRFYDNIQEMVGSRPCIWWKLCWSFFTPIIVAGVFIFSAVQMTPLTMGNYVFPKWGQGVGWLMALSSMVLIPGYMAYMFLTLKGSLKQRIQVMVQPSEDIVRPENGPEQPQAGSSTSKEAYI
Procedure: as §1, §2, §3, §4

animals = conditions: in vivo; cited from earlier work
hBGT-1 [3] = target: T1, hBGT-1; experiment: cell-based
Procedure: as §1, §2, §3, §4

human GAT-1 [4] = target: T2, human GAT-1; experiment: cell-based
Procedure: as §1, §2, §3, §4

**Q.** Which IC50 (hBGT-1 [1]) does the source give for `O=C(O)C1=CCCN(CCON=C(c2ccccc2)c2ccccc2)C1` [NNC-711] here?
**A.** The IC50 was 622 ± 265 µM.

**Q.** What about the IC50 (human GAT-1 [2]) of the same compound?
**A.** The IC50 was 0.04 ± 0.01 µM.

**Q.** And the “anticonvulsive activity in animals” value (animals)?
**A.** Its value is “anticonvulsive activity”.

**Q.** With `O=C(O)C1=CCCNC1` [guvacine] as the compound, how does the IC50 (hBGT-1 [3]) read?
**A.** Its IC50 is over 1000 µM.

**Q.** Which IC50 (human GAT-1 [4]) does the source give for `NCCC(=O)O` [β-alanine] here?
**A.** Its IC50 is 5690 ± 1890 µM.

**Q.** What about the IC50 (hBGT-1 [3]; IC50 at hBGT-1) of the same compound?
**A.** The IC50 was over 1000 µM.

**Q.** And the IC50 (hBGT-1 [3]; IC50 for inhibition of [3H]GABA uptake, human BGT-1, stable cell line, 50 nM [3H]GABA)?
**A.** The IC50 was 1320 ± 224 µM.
